{"source": "patent US20220372014A1", "about": "“NEUROPROTECTIVE COMPOUNDS AND METHODS OF USE THEREOF” (The Johns Hopkins University, priority 2019, published 2022)", "key": {"cortical neurons": {"tested_on": "cortical neurons", "assay": "Nuclear translocation of AIF and PAAN/MIF after α-syn PFF treatment in cortical neurons (subcellular fractionation)", "assay_type": "cell-based, mouse", "conditions": "primary neuronal cultures", "source_text": "FIGS. 3A-3H show PAAN/MIF nuclease activity is required for prevention of α-syn PFF-induced neurotoxicity in neurons. […] See Donawho, et al. (2007) Clin. Cancer Res. 13:2728-37. Intensity of PAAN/MIF and AIF signal is shown in the graph. **P<0.005 versus the PBS control group in the nuclear (N) fraction, two-way ANOVA followed by Tukey's post hoc test. […] Intensity of AIF-bound PAAN/MIF is shown in the graph. *P<0.05, student's t-test. […] Scale bars, 20 μm. The white color in the merged images indicates the overlay of AIF, PAAN/MIF and Hoechst dye in the nucleus. The percentage of cells with nuclear localization of PAAN/MIF and AIF is shown in the graph. ***P<0.0005, student's t-test. […] Intensity of noncleaved genomic DNA is shown in the graph. ***P<0.0005, two-way ANOVA. […] Scale bar, 20 μm. […] Bars represent mean±s.e.m. ***P<0.0005, two-way ANOVA followed by Tukey's post hoc test (n=3). […] Bars represent mean±s.e.m. ***P<0.0005, two-way ANOVA followed by Tukey's post hoc test (n=5). […]\nSubcellular fractionation. Subcellular fraction and quantification of relative levels of AIF and PAAN/MIF were performed as previously described. […] Each fractions were monitored by PARP-1 antibody (BD) for the nuclear fraction and HSP60 antibody (cell signaling) for the postnuclear fraction."}, "SH-SY5Y cells": {"tested_on": "SH-SY5Y cells", "assay": "Staurosporine (STS)-induced apoptotic cell death, Alamar blue", "assay_type": "cell-based", "conditions": "0.5 μM STS", "method": "(§1) Graphs represent mean±s.e.m. ***P<0.0005, two-way ANOVA followed by Tukey's post hoc test (n=3). A PARP inhibitor, ABT-888 is used for the positive control. FIGS. 12B and 12C show in vitro oxidoreductase and tautomerase activity of MIF/PAAN with compound 41, 56, 76, or 77. FIGS. 12D and 12E show Alamar blue cell viability assay from SH-SY5Y cells pre-incubated with compound 41, 56, 76, or 77 in response to 0.5 μM staurosporine (STS) or from HT 22 cells incubated with 1 ng/ml of TNF-α with 50 μM z-VAD. A pan caspase inhibitor, z-VAD or necrostatin (Nec-1) is used for the positive control and PARP inhibitor, ABT-888 is used for negative control. Bars represent mean±s.e.m. ***P<0.0005, two-way ANOVA followed by Tukey's post hoc test (n=3). […] Bars represent mean±s.e.m. **P<0.005, ***P<0.0005, two-way ANOVA followed by Tukey's post hoc test (n=3).\n(§2) FIGS. 14A-14G show the characterization of compound 121. […] Bars represent means±s.e.m. ***P<0.0005, two-way ANOVA followed by Tukey's post hoc test (n=4). […] Bars represent mean±s.e.m. ***P<0.0005, two-way ANOVA followed by Tukey's post hoc test (n=4). […] Bars represent means±s.e.m. **P<0.005, ***P<0.0005, one-way ANOVA followed by Tukey's post hoc test (n=3). […] Bar represent mean±s.e.m. ***P<0.0005, one-way ANOVA followed by Tukey's post hoc test (n=3). […] Quantification of inhibition of PARP-1 activity by compound 56, compound 121 and ABT-888 is shown. Graphs represent mean±s.e.m. ***P<0.0005, two-way ANOVA followed by Tukey's post hoc test (n=3). FIGS. 14F and 14G show Alamar blue cell viability assay from SH-SY5Y cells pre-incubated with either compound 56 or 121 in response to (14F) 0.5 μM staurosporine (STS) or (14G) from HT 22 cells incubated with 1 ng/ml of TNF-α with 50 μM z-VAD. Bars represent mean±s.e.m. ***P<0.0005, two-way ANOVA followed by Tukey's post hoc test (n=5).\n(§3) Cell death and viability assessment. Primary cultured cortical neurons were treated with 5 μg/ml of α-syn PFF for 14 days and cell death was determined by staining of all nuclei with 7 μM Hoechst 33342 and dead cell nuclei with 2 μM propidium iodide (PI) (Invitrogen). The numbers of total and dead cells were counted with the Axiovision 4.6 software (Carl Zeiss). Cell viability was determined by fluorescence at an excitation wavelength 570 nm and an emission wavelength 585 nm using Alamar Blue (Invitrogen)."}, "HT 22 cells": {"tested_on": "HT 22 cells", "assay": "TNF-α and z-VAD-induced necroptosis, Alamar blue", "assay_type": "cell-based", "conditions": "1 ng/ml TNF-α with 50 μM z-VAD", "method": "as §1, §2, §3"}}, "data": [{"smiles": "C[C@]1(c2nc3c(C(N)=O)cccc3[nH]2)CCCN1", "note": "[ABT-888, reference compound]", "values": [{"measurement": "α-syn PFF-induced nuclear translocation of PAAN/MIF and AIF", "setting": "cortical neurons", "result": "attenuated"}, {"measurement": "staurosporine (STS)-induced apoptotic cell death", "setting": "SH-SY5Y cells", "result": "do not inhibit"}, {"measurement": "TNFα and Z-VAD-induced necroptosis", "setting": "HT 22 cells", "result": "not prevented"}]}]}
